In patent US20120214818A1, “METHODS OF TREATING DIASTOLIC DYSFUNCTION AND RELATED CONDITIONS” (THE BOARD OF TRUSTEES OF THE UNIVERSITY OF ILLINOIS, priority 2009, published 2012):
Where “and” joins values, the source holds several entries; their conditions need not be identical. Equal values may be shown once.

What was measured:
DOCA-salt and sham mice = assay: Invasive hemodynamic (pressure-volume catheter) assessment of diastolic dysfunction, acute ranolazine; type: in vivo, mouse; conditions: for DBP, diastolic blood pressure / EDPVR, end diastolic pressure volume relationship (slope) / EF, ejection fraction (invasive) / ESPVR, end systolic pressure volume relationship / HR, heart rate / LVEDP, left ventricular end diastolic pressure / LVESP, left ventricular end systolic pressure / dP/dt max / dP/dt min: ranolazine 5 mg/kg i.v. then 4.8 mg/kg/h; for SBP, systolic blood pressure: ranolazine 5 mg/kg intravenous injection then infusion 4.8 mg/kg/h
Experimental: Generation of DOCA-salt mouse model: Previously, it was shown that this model leads to mild hypertension, myocardial oxidative stress, and diastolic dysfunction.^20 A gradual and mild elevation in blood pressure was induced by unilateral nephrectomy, subcutaneous implantation of a controlled release deoxycorticosterone acetate (DOCA) pellet (0.7 mg/d; Innovative Research of America, Sarasota, Fla.), and substituting drinking water with 1.05% saline. Control animals underwent a sham operation, had placebo pellet implantation, and received water without salt. Invasive assessment of diastolic dysfunction: Mice were anesthetized with 1-1.5% isoflurane and maintained at 37° C. The pressure-volume (PV) catheter was inserted into the right common carotid artery and advanced into the LV. […] Volume and parallel conductance calibration were performed as previously described.^20 Baseline hemodynamic measurements were obtained, and subsequently, the mice received an intravenous injection of ranolazine (5 mg/kg) followed by an infusion at 4.8 mg/kg/h, while additional hemodynamic measurements were recorded. Blood samples were obtained during the last five minutes of the procedure to determine the plasma ranolazine concentration. Previously, we have shown that this model leads to mild hypertension, myocardial oxidative stress, and diastolic dysfunction.^20 A gradual and mild elevation in blood pressure was induced by unilateral nephrectomy, subcutaneous implantation of a controlled release deoxycorticosterone acetate (DOCA) pellet (0.7 mg/d; Innovative Research of America, Sarasota, Fla.), and substituting drinking water with 1.05% saline. Control animals underwent a sham operation, had placebo pellet implantation, and received water without salt. Mice were anesthetized with 1-1.5% isoflurane and maintained at 37° C. The pressure-volume (PV) catheter was inserted into the right common carotid artery and advanced into the LV. […] Volume and parallel conductance calibration were performed as previously described.^20 Baseline hemodynamic measurements were obtained, and subsequently to determine the acute effect, the mice received an intravenous injection of ranolazine (5 mg/kg) followed by an infusion at 4.8 mg/kg/h, while additional hemodynamic measurements were recorded. Blood samples were obtained during the last five minutes of the procedure to determine the plasma ranolazine concentration.

[1] = tested on: isolated ventricular cardiomyocytes from DOCA-salt and sham mice; assay: Cell shortening (sarcomere shortening and relengthening) of isolated cardiomyocytes; type: cell-based, mouse; conditions: for relaxation τ (relaxation time constant): 10 μmol/L ranolazine 10 min
Experimental: Myocyte isolation: Cardiac ventricular myocytes were isolated from the hearts of DOCA-salt or age matched controls mice 14-18 d post-operatively using a modified enzymatic digestion protocol from the Alliance for Cellular Signaling as previously described.^20 Cell shortening and calcium transient measurements: The mechanical properties of the cardiomyocytes were assessed using an IonOptix Myocam System (Ionoptix Inc., Milton, Mass.). Unloaded cardiomyocytes were placed on a glass slide and allowed to adhere for 10 min. Cardiomyocytes were then imaged with an inverted microscope and perfused with a Tyrode's buffer containing 1.2 mmol/L calcium at room temperature. Cardiomyocytes were paced at 0.5 Hz for 10 ms duration, and sarcomere shortening and relengthening were assessed using the following indices: peak fractional shortening (FS), time to 90% peak shortening, and τ, the relaxation time constant (a0+[…]^t/τ, t=time). Cardiomyocytes were treated with 10 μmol/L ranolazine for 10 min prior to evaluation. For calcium transient measurements, cardiomyocytes were loaded with 1 μmol/L Fura 2-AM for 10 min at room temperature, and fluorescence measurements were recorded with a dual-excitation fluorescence photomultiplier system (IonOptix). After loading, the cells were washed and resuspended in normal Tyrode solution. The cardiomyocytes were placed then in the cell chamber, stimulated at 0.5 Hz for 10 ms duration, and imaged through a Fluor×40 objective lens. Cells were exposed to light emitted by a 75-W Xenon lamp and passed though either a 340- or 380-nm wavelength filter. The emitted fluorescence was detected at 510 nm. To take into account any inference from background fluorescence, the background fluorescence for each cardiomyocyte was determined by moving the cardiomyocyte out of the view and recording the fluorescence from the bath solution alone. The mechanical properties of the cardiomyocytes were assessed using an IonOptix Myocam System (Ionoptix Inc., Milton, Mass.). Unloaded cardiomyocytes were placed on a glass slide and allowed to adhere for 10 min at 37° C. Cardiomyocytes were then imaged with an inverted microscope and perfused with a Tyrode's buffer containing 1.2 mmol/L calcium at room temperature. Cardiomyocytes were paced at 0.5, 1, or 2 Hz for 10 ms duration, and sarcomere shortening and relengthening were assessed using the following indices: peak fractional shortening (FS), time to 90% peak shortening, and τ, the relaxation time constant (a0+[…]^t/τ, t=time). Cardiomyocytes were treated with 10 μmol/L ranolazine for 10 min prior to evaluation. […] For calcium transient measurements, cardiomyocytes were loaded with 1 μmol/L fura 2-AM for 10 min at 37° C., and fluorescence measurements were recorded with a dual-excitation fluorescence photomultiplier system (IonOptix). After loading, the cells were washed and resuspended in normal Tyrode solution. The cardiomyocytes were placed then in the cell chamber, stimulated at 0.5, 1, or 2 Hz for 10 ms duration, and imaged through a Fluor×40 objective lens. Cells were exposed to light emitted by a 75-W Xenon lamp and passed though either a 340- or 380-nm wavelength filter. The emitted fluorescence was detected at 510 nm. To take into account any interference, the background fluorescence for each cardiomyocyte was determined by moving the cardiomyocyte out of the view and recording the fluorescence from the bath solution alone. Myocyte isolation: Cardiac ventricular myocytes were isolated from the hearts of DOCA-salt or age matched controls mice 14-18 d post-operatively using a modified enzymatic digestion protocol from the Alliance for Cellular Signaling as previously described (Silberman et al., Circulation 121: 519-528 (2010)).

patients = conditions: cited from earlier work
[2] = DOCA-salt cardiomyocytes paced at 1 Hz and 2 Hz (FIG. 14)

Structure (SMILES): COc1ccccc1OCC(O)CN1CCN(CC(=O)Nc2c(C)cccc2C)CC1 (centres unmarked) [ranolazine]
- Pearson correlation coefficient of EDPVR with serum/plasma ranolazine levels (DOCA-salt and sham mice; DOCA-salt mice, n=6, p<0.05): 0.70
- DBP, diastolic blood pressure (DOCA-salt and sham mice; DOCA-salt mice): 73 ± 2 mmHg
- EDPVR, end diastolic pressure volume relationship (slope) (DOCA-salt and sham mice; DOCA-salt mice): 0.17±0.01 mmHg/μL
- EF, ejection fraction (invasive) (DOCA-salt and sham mice; DOCA-salt mice): 67 ± 4%
- ESPVR, end systolic pressure volume relationship (DOCA-salt and sham mice; DOCA-salt mice): 4.1 ± 0.2 mmHg/μL
- HR, heart rate (DOCA-salt and sham mice; DOCA-salt mice): 588 ± 16 bpm
- LVEDP, left ventricular end diastolic pressure (DOCA-salt and sham mice; DOCA-salt mice): 3.5±0.4 mmHg and 3.6 ± 0.4 mmHg
- LVESP, left ventricular end systolic pressure (DOCA-salt and sham mice; DOCA-salt mice): 98 ± 3 mmHg
- dP/dt max (DOCA-salt and sham mice; DOCA-salt mice): 12,495 ± 555 mmHg/sec
- dP/dt min (DOCA-salt and sham mice; DOCA-salt mice): −12,211 ± 792 mmHg/sec
- SBP, systolic blood pressure (DOCA-salt and sham mice; DOCA-salt mice): 102 ± 3 mmHg
- DBP, diastolic blood pressure (DOCA-salt and sham mice; sham mice): 58 ± 2 mmHg
- EDPVR, end diastolic pressure volume relationship (slope) (DOCA-salt and sham mice; sham mice): 0.18±0.01 mmHg/μL
- EF, ejection fraction (invasive) (DOCA-salt and sham mice; sham mice): 73 ± 5%
- ESPVR, end systolic pressure volume relationship (DOCA-salt and sham mice; sham mice): 3.9 ± 0.5 mmHg/μL
- HR, heart rate (DOCA-salt and sham mice; sham mice): 620 ± 5 bpm
- LVEDP, left ventricular end diastolic pressure (DOCA-salt and sham mice; sham mice): 4.2 ± 0.5 mmHg
- LVESP, left ventricular end systolic pressure (DOCA-salt and sham mice; sham mice): 84 ± 3 mmHg and 85 ± 3 mmHg
- dP/dt max (DOCA-salt and sham mice; sham mice): 12,032 ± 787 mmHg/sec
- dP/dt min (DOCA-salt and sham mice; sham mice): −10,083 ± 685 mmHg/sec
- SBP, systolic blood pressure (DOCA-salt and sham mice; sham mice): 93 ± 3 mmHg
- relaxation time (τ) at 1 and 2 Hz pacing [1, 2]: improved relaxations times at both frequencies
- sarcomere length at 1 and 2 Hz pacing [1, 2]: lengthened sarcomere length at both frequencies
- relaxation τ (relaxation time constant) ([1]; DOCA-salt cardiomyocytes, 0.5 Hz, 37° C. (Example 7)): 0.13 ± 0.01 s
- relaxation τ (relaxation time constant) ([1]; DOCA-salt cardiomyocytes, paced 0.5 Hz, room temperature (Example 3)): 0.08 ± 0.01 s
- resting (baseline) sarcomere length ([1]; DOCA-salt cardiomyocytes, 10 μmol/L ranolazine (Example 6)): 1.81±0.01 μm
- resting (baseline) sarcomere length ([1]; DOCA-salt cardiomyocytes, 10 μmol/L ranolazine, 37° C. (Example 7)): 1.81±0.01 μm
- contraction (fractional shortening, time to 90% peak contraction) ([1]; sham and DOCA-salt cardiomyocytes, 10 μmol/L ranolazine): did not affect contraction
- relaxation τ (relaxation time constant) ([1]; sham cardiomyocytes, 0.5 Hz, 37° C. (Example 7)): 0.09 ± 0.02 s
- relaxation τ (relaxation time constant) ([1]; sham cardiomyocytes, paced 0.5 Hz, room temperature (Example 3)): 0.07 ± 0.01 s
- resting (baseline) sarcomere length ([1]; sham cardiomyocytes, 10 μmol/L ranolazine (Example 6)): 1.82±0.01 μm
- resting (baseline) sarcomere length ([1]; sham cardiomyocytes, 10 μmol/L ranolazine, 37° C. (Example 7)): 1.86±0.02 μm
- reversibility of the effect on relaxation and sarcomere length ([1]; washout): reversible upon washout
- proarrhythmic risk (patients; clinically relevant doses, MERLIN TIMI 36 investigators): no proarrhythmic risk
- relationship with the QTc interval (patients; human, in vivo): positive linear relationship
